Test results: ChEMBL document CHEMBL2331237, “Amides of 4-hydroxy-8-methanesulfonylamino-quinoline-2-carboxylic acid as zinc-dependent inhibitors of Lp-PLA₂” (Bioorg Med Chem Lett, 2013)

The molecules below were run against T1, Platelet-activating factor acetylhydrolase (Homo sapiens, UniProt Q13093) (assay: Inhibition of human plasma Lp-PLA2 using 2- thio-PAF as substrate incubated for 20 mins prior to substrate addition measured after 1 hr).
T1 sequence (Q13093 whole entry): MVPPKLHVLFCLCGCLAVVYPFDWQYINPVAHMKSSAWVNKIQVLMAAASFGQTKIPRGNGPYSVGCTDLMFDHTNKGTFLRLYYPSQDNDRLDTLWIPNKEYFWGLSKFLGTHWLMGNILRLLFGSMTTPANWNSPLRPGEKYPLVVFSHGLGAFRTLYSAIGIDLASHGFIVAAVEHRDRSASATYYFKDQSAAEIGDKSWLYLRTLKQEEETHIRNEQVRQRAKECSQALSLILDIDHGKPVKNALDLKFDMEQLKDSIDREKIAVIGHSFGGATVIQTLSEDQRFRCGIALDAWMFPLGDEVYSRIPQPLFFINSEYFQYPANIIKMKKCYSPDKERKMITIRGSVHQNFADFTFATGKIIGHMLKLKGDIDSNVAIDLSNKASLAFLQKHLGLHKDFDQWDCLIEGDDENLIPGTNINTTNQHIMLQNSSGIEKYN

IC50, > 100 µM:
COc1cc(NS(=O)(=O)c2ccc(C)cc2)c2ncccc2c1
CCOC(=O)COc1cc(NS(=O)(=O)c2ccc(C)cc2)c2nc(C)ccc2c1
CS(=O)(=O)Nc1cccc2c(O)cc(C(=O)NC3CCCCCCCCCCCCC3)nc12
